Drawing on PubChem BioAssay (NCI), this text covers GI50 and TGI for 13 molecules.

Some test systems named below: SK-MEL-5 melanoma; NCI-H522 lung; 786-0 renal; PC-3 prostate; HT29 colon; MOLT-4 leukemia; SK-MEL-28 melanoma; A498 renal; OVCAR-5 ovarian; UACC-257 melanoma.
What all share (test): NCI tumour cell line growth inhibition, 48 h

Structures are written as SMILES.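 Each compound was tested at five concentrations against cells in 96-well plates for 48 hours. GI50 is the concentration that inhibits growth by half. At the TGI there is no net growth.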

Take `C=C(C)C1CCC2(C(=O)O)CCC3(C)C(CCC4C5(C)CCC(OC(=O)NCc6ccccc6)C(C)(C)C5CCC43C)C12` (configuration not stated): the GI50 in the assay on SK-MEL-5 melanoma is 4820 nM; with NCI-H522 lung, 150 nM; in the assay on 786-0 renal it was 3.98 µM; in the assay with PC-3 prostate, 1200 nM; in the assay on HT29 colon, 3.42 µM; in the assay on MOLT-4 leukemia it was 2.79 µM. Moreover, the GI50 is 1.08 µM in the assay on SK-MEL-28 melanoma, 2570 nM with A498 renal, 84.3 µM with OVCAR-5 ovarian and 2.3 µM in the assay with UACC-257 melanoma. For the same molecule, the TGI with SK-MEL-5 melanoma was greater than 100 µM; in the assay on NCI-H522 lung, 10.4 µM; in the assay on 786-0 renal it was greater than 100 µM; with PC-3 prostate, 95.7 µM; with HT29 colon, 30.4 µM; with MOLT-4 leukemia it was greater than 100 µM. Moreover, the TGI in the assay with SK-MEL-28 melanoma, with A498 renal, in the assay with OVCAR-5 ovarian and in the assay with UACC-257 melanoma was greater than 100 µM each time.

`N#Cc1cccc(NC(=O)c2cc(-c3ccc(F)cc3F)ccc2O)c1`: the GI50 was 728 nM in the assay on SK-MEL-5 melanoma; 1640 nM in the assay on NCI-H522 lung; 2.69 µM in the assay with 786-0 renal; 2880 nM in the assay on PC-3 prostate; 4.73 µM in the assay on HT29 colon; 2.46 µM with MOLT-4 leukemia. Besides, the GI50 is 2.07 µM in the assay on SK-MEL-28 melanoma, 1270 nM in the assay with A498 renal, 3.2 µM in the assay with OVCAR-5 ovarian and 1.53 µM in the assay with UACC-257 melanoma. For the same molecule, the TGI with SK-MEL-5 melanoma was 2.15 µM; with NCI-H522 lung, 12.1 µM; in the assay on 786-0 renal it was 19.4 µM; in the assay with PC-3 prostate it was 9.88 µM; in the assay with HT29 colon it was 37.3 µM; with MOLT-4 leukemia, 6.65 µM. The TGI in the assay on SK-MEL-28 melanoma was 14.8 µM; in the assay on A498 renal, 4.3 µM; in the assay with OVCAR-5 ovarian, 25.5 µM; in the assay on UACC-257 melanoma it was 5.84 µM.

In the case of `COC(=O)C(NC(=O)c1ccccc1)c1ccco1` (configuration not stated), the TGI with SK-MEL-5 melanoma, with 786-0 renal, in the assay on PC-3 prostate, in the assay with HT29 colon, in the assay with MOLT-4 leukemia and in the assay on SK-MEL-28 melanoma was greater than 100 µM in each case. The TGI in the assay on A498 renal, in the assay on OVCAR-5 ovarian and in the assay with UACC-257 melanoma was greater than 100 µM each time.

`CC[CH2][Sn]([Cl])([Cl])[CH2]CC.Oc1ccccc1C=NCCN=Cc1ccccc1O`: the GI50 in the assay on SK-MEL-5 melanoma is 4870 nM; in the assay with 786-0 renal, 7.91 µM; in the assay on PC-3 prostate it was 6280 nM; with MOLT-4 leukemia, 4.88 µM; in the assay with SK-MEL-28 melanoma it was 8.7 µM; with A498 renal, 2220 nM. Moreover, the GI50 was 12.9 µM in the assay with OVCAR-5 ovarian and 3.61 µM in the assay on UACC-257 melanoma. The TGI in the assay on SK-MEL-5 melanoma is 17.5 µM; in the assay with 786-0 renal it was 20.7 µM; with PC-3 prostate, 22.7 µM; in the assay with MOLT-4 leukemia it was greater than 100 µM; with SK-MEL-28 melanoma, 21.6 µM; with A498 renal it was 6.03 µM. In addition, the figures for the TGI with OVCAR-5 ovarian and in the assay on UACC-257 melanoma were 26 µM and 17.8 µM, respectively.

For `COc1ccc(-c2nnc(COc3ccc(NC(=O)Nc4ccc(Cl)c(C(F)(F)F)c4)cc3F)o2)cc1`, the GI50 with SK-MEL-5 melanoma is 2100 nM; with 786-0 renal it was 3.24 µM; with PC-3 prostate, 1840 nM; with HT29 colon, 3.57 µM; with MOLT-4 leukemia it was 2.39 µM; in the assay on SK-MEL-28 melanoma, 5.27 µM. The GI50 in the assay on A498 renal was 3190 nM; in the assay with OVCAR-5 ovarian, 10.9 µM; in the assay with UACC-257 melanoma, 2.41 µM. Further, the TGI in the assay on SK-MEL-5 melanoma was found to be 5.36 µM; in the assay on 786-0 renal, 12 µM; with PC-3 prostate, 12.7 µM; in the assay with HT29 colon, 22.4 µM; with MOLT-4 leukemia it was 11.6 µM; in the assay with SK-MEL-28 melanoma it was 54.6 µM. In addition, the TGI amounted to 20 µM with A498 renal, 71.4 µM in the assay on OVCAR-5 ovarian and 11.2 µM with UACC-257 melanoma.

As for `Cc1ccc(NC(=O)NCCCOc2ccc(N3C(N)=NC(N)=NC3(C)C)cc2Cl)cc1S(=O)(=O)F`, the GI50 with SK-MEL-5 melanoma was 1880 nM; with 786-0 renal, 7.36 µM; with PC-3 prostate, 1490 nM; in the assay on MOLT-4 leukemia it was 9.26 µM; in the assay with SK-MEL-28 melanoma it was 11.6 µM; in the assay on A498 renal, 75500 nM. Further, the GI50 in the assay with OVCAR-5 ovarian is 6.44 µM; in the assay on UACC-257 melanoma it was 10.9 µM. The TGI in the assay on SK-MEL-5 melanoma was 21.5 µM; with 786-0 renal it was greater than 100 µM; with PC-3 prostate, greater than 100 µM; in the assay on MOLT-4 leukemia, greater than 100 µM; with SK-MEL-28 melanoma, greater than 100 µM; with A498 renal, greater than 100 µM. For the same molecule, the TGI in the assay with OVCAR-5 ovarian and with UACC-257 melanoma was greater than 100 µM throughout.

`CCC(=O)c1c(C(F)(F)F)n([O-])c2ccc(C)cc2[n+]1=O`: the GI50 in the assay with SK-MEL-5 melanoma is 4330 nM; in the assay on NCI-H522 lung, 1620 nM; in the assay with 786-0 renal, 22 µM; in the assay on PC-3 prostate it was 2270 nM; with HT29 colon, 14.1 µM; with MOLT-4 leukemia it was 14.1 µM. Also, the GI50 was 28.2 µM in the assay with SK-MEL-28 melanoma, 3.43 µM with OVCAR-5 ovarian and 11.3 µM with UACC-257 melanoma. The TGI is 13.9 µM with SK-MEL-5 melanoma; 11.2 µM in the assay with NCI-H522 lung; greater than 50 µM in the assay on 786-0 renal; 15.1 µM with PC-3 prostate; greater than 50 µM in the assay with HT29 colon; greater than 50 µM in the assay with MOLT-4 leukemia. Further, the TGI is greater than 50 µM in the assay on SK-MEL-28 melanoma, 41.6 µM in the assay with OVCAR-5 ovarian and greater than 50 µM in the assay on UACC-257 melanoma.

For the molecule `CCOC(=O)c1c(C)nc2c(c1N)/C(=C/c1ccc(OC)cc1)C(=O)N2Cc1ccc(F)cc1`, the GI50 in the assay on SK-MEL-5 melanoma is 333 nM; in the assay with NCI-H522 lung it was 125 nM; in the assay with 786-0 renal, 0.165 µM; with PC-3 prostate, 277 nM; with HT29 colon, 0.171 µM; with MOLT-4 leukemia it was 0.221 µM. Also, the GI50 in the assay on SK-MEL-28 melanoma was 0.183 µM; in the assay with A498 renal it was 535 nM; in the assay with OVCAR-5 ovarian, 0.246 µM. The TGI came out at 1.48 µM in the assay with SK-MEL-5 melanoma; 0.296 µM in the assay with NCI-H522 lung; 0.389 µM with 786-0 renal; 1 µM in the assay on PC-3 prostate; 0.587 µM in the assay on HT29 colon; 0.745 µM in the assay with MOLT-4 leukemia. The figures for the TGI in the assay with SK-MEL-28 melanoma, with A498 renal and with OVCAR-5 ovarian were 0.374 µM, 2.6 µM and 0.561 µM, respectively.

Regarding `COc1ccc(-n2cc(-c3cc(OC)c(OC)c(OC)c3)[nH]c2=O)cc1Cl`, the GI50 was greater than 100000 nM in the assay with SK-MEL-5 melanoma; greater than 100000 nM in the assay on NCI-H522 lung; 27.7 µM in the assay with 786-0 renal; greater than 100000 nM with PC-3 prostate; greater than 100 µM in the assay on HT29 colon; greater than 100 µM in the assay on MOLT-4 leukemia. The values for the GI50 in the assay with SK-MEL-28 melanoma, in the assay on A498 renal and in the assay with OVCAR-5 ovarian were greater than 100 µM, 73900 nM and greater than 100 µM, respectively. Moreover, the TGI in the assay with SK-MEL-5 melanoma, in the assay on NCI-H522 lung, with 786-0 renal, with PC-3 prostate, with HT29 colon and with MOLT-4 leukemia was greater than 100 µM throughout. In addition, the TGI with SK-MEL-28 melanoma, with A498 renal and with OVCAR-5 ovarian was greater than 100 µM in each case.

`O=C(O)[C@@H]1CCCCN1Cc1cc2cc3c(cc2c2cc(OCc4ccccc4)ccc12)OCO3`: the GI50 with SK-MEL-5 melanoma is 1620 nM; with NCI-H522 lung it was 4890 nM; in the assay on 786-0 renal, 18.9 µM; in the assay with PC-3 prostate, 16400 nM; with HT29 colon it was 3.24 µM; in the assay on MOLT-4 leukemia, 63.3 µM. In addition, the GI50 with SK-MEL-28 melanoma is 2.21 µM; with OVCAR-5 ovarian, 19.2 µM; in the assay on UACC-257 melanoma, 3.4 µM. For the same molecule, the TGI with SK-MEL-5 melanoma is 3.61 µM; in the assay on NCI-H522 lung, 18.4 µM; in the assay with 786-0 renal, 44.9 µM; in the assay with PC-3 prostate it was 38.3 µM; with HT29 colon, 15.8 µM; in the assay with MOLT-4 leukemia it was greater than 100 µM. Besides, the TGI in the assay on SK-MEL-28 melanoma came to 7.28 µM; in the assay on OVCAR-5 ovarian it was 44 µM; with UACC-257 melanoma, 12 µM.

On to `Cn1c2ccccc2c2c3[nH]c(=O)[nH]c(=O)c3c3c4ccccc4n(C)c3c21`, for which the GI50 in the assay with NCI-H522 lung was 1900 nM; with 786-0 renal, 1.88 µM; in the assay on PC-3 prostate, 30100 nM; in the assay on SK-MEL-28 melanoma it was 4.5 µM; with A498 renal it was 47.5 nM; in the assay on OVCAR-5 ovarian it was 3 µM. The GI50 in the assay on UACC-257 melanoma was greater than 100 µM. The TGI in the assay on NCI-H522 lung is 12.8 µM; in the assay on 786-0 renal, 4.34 µM; in the assay with PC-3 prostate, greater than 100 µM; in the assay on SK-MEL-28 melanoma, greater than 100 µM; in the assay on A498 renal, 4.37 µM; in the assay with OVCAR-5 ovarian, greater than 100 µM. Besides, the TGI in the assay with UACC-257 melanoma is greater than 100 µM.

For the molecule `COc1cc2c(c(OC)c1OC)C(=O)[C@@H]1c3ccc([N+](=O)[O-])cc3C(=O)N(CCCBr)[C@H]21`, the GI50 is 11000 nM in the assay on SK-MEL-5 melanoma; 4180 nM with NCI-H522 lung; 12.5 µM with 786-0 renal; 13100 nM with PC-3 prostate; 14.2 µM in the assay with HT29 colon; 19.8 µM in the assay with MOLT-4 leukemia. The GI50 was 33.1 µM in the assay with SK-MEL-28 melanoma, 31 µM with OVCAR-5 ovarian and 5.21 µM in the assay with UACC-257 melanoma. For the same molecule, the TGI with SK-MEL-5 melanoma is 27.5 µM; in the assay on NCI-H522 lung, 25.2 µM; in the assay with 786-0 renal, 33.1 µM; in the assay with PC-3 prostate it was 55.6 µM; in the assay on HT29 colon it was greater than 100 µM; in the assay with MOLT-4 leukemia, greater than 100 µM. The TGI in the assay on SK-MEL-28 melanoma was greater than 100 µM; with OVCAR-5 ovarian it was 91.9 µM; in the assay with UACC-257 melanoma it was 30.8 µM.

In the case of `CNc1nc(N)c(N=O)c(Nc2ccc(Br)cc2)n1`, the TGI in the assay with SK-MEL-5 melanoma, in the assay with NCI-H522 lung, in the assay with 786-0 renal, in the assay on PC-3 prostate, in the assay with HT29 colon and with MOLT-4 leukemia was greater than 100 µM each time. The TGI with SK-MEL-28 melanoma, in the assay with OVCAR-5 ovarian and in the assay with UACC-257 melanoma was greater than 100 µM throughout.
